Patent US10617772B2, “Hsp9O-targeted inflammation and infection imaging and therapy” (Memorial Sloan Kettering Cancer Center, priority 2014, dated 2020)

Experiments:
[1] = test system: inflammatory pulmonary consolidation; assay: I-124 PUH71 PET-CT, tracer mixed with a therapeutic dose of non-radioactive PUH71 (FIGS. 3-4); format: in vivo, human
Experimental: (§1) Positron emission tomography (PET) combined with X-ray computed tomography (CT) was performed using a state of the art integrated PET-CT scanner (Discovery DSTE™ General Electric). CT scans for attenuation correction and anatomic coregistration were performed prior to tracer-injection, using the following acquisition parameters: 140 kVp; 85 mA; pitch of 1.75:1; reconstructed slice thickness of 3.75 mm; 0.8 s per rotation. The CT protocol was designed for anatomic localization of tracer-signal and for attenuation correction, while minimizing radiation exposure. Each patient received ˜185 megabecquerel (MBq) [^124I]-PU-H71 by peripheral vein over two minutes. PET emission scans were acquired in two-dimensional mode starting at the mid-thighs moving toward the head, for 7.5 minutes per PET bed position. PET data were reconstructed using a standard ordered subset expected maximization iterative algorithm. Emission data were corrected for scatter, attenuation and decay. Clinical FDG PET-CT studies were performed according to standard methods using state of the art PET-CT scanners. [^124I]-PU-H71 scans were performed at 3-4 hrs, 20-24 hrs, 48-72 hours and, optionally, ˜168 hrs after tracer administration on the microdose [^124I]-PU-H71 PET-CT study.
PU-PET images were taken 1.5, 4, 24 and 48-72 hrs after co-administration on the tracer mixed with a therapeutic dose of non-radioactive PUH71 in a total volume of […], co-infused intravenously over one hour. Patient were treated with PU-H71 at escalating dose levels determined by a modified continuous reassessment model. Each patient is treated with his or her assigned dose on day 1, 4, 8 and 11 of each 21 day cycle. Pre- and post-treatment biopsies were collected for correlative studies including LCMSMS quantification of PU-H71, with the latter obtained within 24 hours of their cycle 1, day 1 dose of PU-H71.

[2] = test system: inflammatory pulmonary infiltrate; assay: I-124 PUH71 PET-CT, microdose study in patients (FIGS. 1-2); format: in vivo, human; settings: person with ovarian cancer; PET-CT 24 hours after intravenous injection of 9.3 mCi
Experimental: as §1

[3] = person with breast cancer, 6.5 mCi mixed with 35 mg non-radioactive PUH71, PET

SMILES	uptake relative to surrounding healthy tissues ([1]; diseased tissue, patients, PET)	blood clearance ([1]; patients, PET)	retention in the diseased tissue ([1]; patients, PET)	outcome of pulmonary consolidation on CT scan ([1]; two weeks after imaging, PUH71 35 mg twice a week for two weeks per three week cycle, together with antibiotic treatment and pleural fluid drainage)	clearance of tracer from blood stream (void of activity within the cardiac atrium) [1, 3]	tracer retention in left ventricle myocardium [1, 3]	accumulation and retention of tracer in inflammatory pulmonary consolidation (right lung) ([1]; person with breast cancer, 6.5 mCi mixed with 35 mg non-radioactive PUH71, immediately, 4 hours and 24 hours post-injection)	accumulation of tracer in inflammatory pulmonary infiltrate (apex of left lung) [2]
CC(C)NCCCn1c(Sc2cc3c(cc2I)OCO3)nc2c(N)ncnc21 [PUH71]	high uptake	rapid blood clearance	sustained retention	pulmonary consolidation had resolved				
CC(C)NCCCn1c(Sc2cc3c(cc2[124I])OCO3)nc2c(N)ncnc21 [I-124 PUH71]					cleared from blood stream	distinct tracer retention	distinct accumulation and sustained retention	distinct accumulation
